Assay results published in US12358885B2, “Substituted n-propylamine fused heterocyclic mescaline derivatives” (Enveric Biosciences Canada Inc., priority 2022, dated 2025).
Where two headings read alike, the source gives them in different places.

How the values were obtained:
5-HT2A receptor [1] = target: T1, 5-HT2A receptor (Homo sapiens, UniProt P28223); experiment: biochemical; assay type: binding; settings: for inhibition at 10 µM: 10 μM test molecule, [125I](±)DOI, recombinant receptor in HEK-293 cells, read-out: HT2A, percent of control-specific binding
T1 construct: host or cells: HEK-293 cells (membrane preparation)

5-HT2A receptor [2] = target: T1, 5-HT2A receptor; experiment: biochemical; assay type: binding
[3] = target: T2, serotonin transporter (SERT) (Homo sapiens, UniProt P31645); experiment: biochemical; assay type: binding; settings: for inhibition at 10 µM: read-out: SERT, percent of control-specific binding
T2 construct: host or cells: CHO cells (membrane preparation)

5-HT1A receptor [4] = target: T3, 5-HT1A receptor (Homo sapiens, UniProt P08908); experiment: 5-HT1A receptor radioligand competition assay (SPA, 8-hydroxy-DPAT [3H]); assay type: binding; settings: 0.5 nM hot 8-hydroxy-DPAT, membranes containing 5-HT1A
T3 construct: purchased Perkin Elmer 6110501400UA
T3 sequence (P08908 1-422): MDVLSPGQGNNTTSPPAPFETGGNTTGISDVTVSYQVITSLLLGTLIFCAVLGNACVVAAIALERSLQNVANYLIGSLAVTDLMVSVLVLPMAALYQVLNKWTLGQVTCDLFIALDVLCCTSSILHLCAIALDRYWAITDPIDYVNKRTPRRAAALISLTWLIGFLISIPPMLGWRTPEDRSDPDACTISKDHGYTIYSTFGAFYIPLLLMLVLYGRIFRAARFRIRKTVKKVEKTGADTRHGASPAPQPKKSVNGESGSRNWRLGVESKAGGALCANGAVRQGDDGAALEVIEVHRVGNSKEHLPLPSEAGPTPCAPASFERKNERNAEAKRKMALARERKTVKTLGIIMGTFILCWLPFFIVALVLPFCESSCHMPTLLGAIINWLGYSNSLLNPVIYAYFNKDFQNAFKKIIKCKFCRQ

D3 receptor = target: T4, D3 receptor (Homo sapiens, UniProt P35462); experiment: Eurofins Cerep competition binding assay at D3 receptor; settings: 10 μM test ligand, [3H]methylspiperone, recombinant receptor in CHO cells; for inhibition at 10 µM: read-out: D3, percent of control-specific binding
T4 construct: host or cells: CHO cells (membrane preparation)

5-HT1A receptor [5] = target: T3, 5-HT1A receptor; experiment: Functional 5-HT1A receptor cAMP assay in CHO-K1/5-HT1A/Gα15 cells; assay type: cell-based
5-HT1A receptor [6] = target: T3, 5-HT1A receptor; experiment: Eurofins Cerep competition binding assay at 5-HT1A receptor; settings: 10 μM test ligand, [3H]8-OH-DPAT, recombinant receptor in HEK-293 cells; for inhibition at 10 µM: read-out: HT1A, percent of control-specific binding
[7] = target: T5, dopamine transporter (DAT) (Homo sapiens, UniProt Q01959); experiment: Eurofins Cerep competition binding assay at dopamine transporter; settings: for inhibition at 10 µM: read-out: DAT, percent of control-specific binding
T5 construct: host or cells: CHO cells (membrane preparation)

alpha2A receptor = target: T6, alpha2A receptor (Homo sapiens, UniProt P08913); experiment: Eurofins Cerep competition binding assay at alpha2A receptor; settings: 10 μM test ligand; [3H]RX 821002; recombinant receptor in CHO cells
T6 construct: host or cells: CHO cells (membrane preparation)
T6 sequence (P08913 1-465): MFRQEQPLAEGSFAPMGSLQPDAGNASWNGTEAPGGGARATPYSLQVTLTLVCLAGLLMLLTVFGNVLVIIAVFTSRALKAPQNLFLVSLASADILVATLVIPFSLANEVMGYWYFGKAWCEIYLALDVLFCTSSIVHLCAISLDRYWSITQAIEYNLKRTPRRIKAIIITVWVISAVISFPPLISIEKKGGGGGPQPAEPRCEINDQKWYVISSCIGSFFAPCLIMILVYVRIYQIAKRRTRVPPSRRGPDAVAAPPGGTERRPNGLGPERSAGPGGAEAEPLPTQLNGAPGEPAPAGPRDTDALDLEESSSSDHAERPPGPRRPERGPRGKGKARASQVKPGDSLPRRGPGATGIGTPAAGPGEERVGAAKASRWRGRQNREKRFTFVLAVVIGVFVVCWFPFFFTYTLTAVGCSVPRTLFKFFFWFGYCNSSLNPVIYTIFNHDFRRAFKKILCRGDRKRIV

5-HT7 receptor = target: T7, 5-HT7 receptor (Homo sapiens, UniProt P34969); experiment: Eurofins Cerep competition binding assay at 5-HT7 receptor; settings: 10 μM test ligand, [3H]LSD, recombinant receptor in HEK-293 cells; for inhibition at 10 µM: read-out: HT7, percent of control-specific binding
T7 construct: host or cells: HEK-293 cells (membrane preparation)

MT1 receptor = target: T8, MT1 receptor (Homo sapiens, UniProt P48039); experiment: Eurofins Cerep competition binding assay at MT1 receptor; settings: for inhibition at 10 µM: read-out: MT1, percent of control-specific binding
T8 construct: host or cells: CHO cells (membrane preparation)

5-HT2B receptor = target: T9, 5-HT2B receptor (Homo sapiens, UniProt P41595); experiment: Eurofins Cerep competition binding assay at 5-HT2B receptor; settings: 10 μM test ligand, [3H]mesulergine, recombinant receptor in CHO cells; for inhibition at 10 µM: read-out: HT2B, percent of control-specific binding
T9 construct: host or cells: CHO cells (membrane preparation)

[8] = target: T10, norepinephrine transporter (NET) (Homo sapiens, UniProt P23975); experiment: Eurofins Cerep competition binding assay at norepinephrine transporter; settings: for inhibition at 10 µM: read-out: NET, percent of control-specific binding
T10 construct: host or cells: CHO cells (membrane preparation)

5-HT2C receptor = target: T11, 5-HT2C receptor (Homo sapiens, UniProt P28335); experiment: Eurofins Cerep competition binding assay at 5-HT2C receptor; settings: 10 μM test ligand, [125I](±)DOI, recombinant receptor in HEK-293 cells; for inhibition at 10 µM: read-out: HT2C, percent of control-specific binding
T11 construct: host or cells: HEK-293 cells (membrane preparation)
T11 sequence (P28335 33-458): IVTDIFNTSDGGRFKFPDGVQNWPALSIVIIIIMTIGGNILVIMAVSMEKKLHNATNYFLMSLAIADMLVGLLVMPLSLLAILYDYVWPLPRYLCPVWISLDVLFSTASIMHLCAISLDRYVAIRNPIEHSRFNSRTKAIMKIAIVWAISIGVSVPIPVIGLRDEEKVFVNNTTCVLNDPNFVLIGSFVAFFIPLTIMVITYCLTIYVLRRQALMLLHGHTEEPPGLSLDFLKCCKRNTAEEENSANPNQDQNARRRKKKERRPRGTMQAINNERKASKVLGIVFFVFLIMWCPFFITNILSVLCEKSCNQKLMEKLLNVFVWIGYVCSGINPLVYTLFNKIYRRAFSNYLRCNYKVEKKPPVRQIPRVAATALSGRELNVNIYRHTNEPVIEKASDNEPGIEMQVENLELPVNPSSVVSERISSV

[9] = 1 nM [3H]ketanserin, membranes containing 5-HT2A, SPA

T8 sequence (P48039 whole entry): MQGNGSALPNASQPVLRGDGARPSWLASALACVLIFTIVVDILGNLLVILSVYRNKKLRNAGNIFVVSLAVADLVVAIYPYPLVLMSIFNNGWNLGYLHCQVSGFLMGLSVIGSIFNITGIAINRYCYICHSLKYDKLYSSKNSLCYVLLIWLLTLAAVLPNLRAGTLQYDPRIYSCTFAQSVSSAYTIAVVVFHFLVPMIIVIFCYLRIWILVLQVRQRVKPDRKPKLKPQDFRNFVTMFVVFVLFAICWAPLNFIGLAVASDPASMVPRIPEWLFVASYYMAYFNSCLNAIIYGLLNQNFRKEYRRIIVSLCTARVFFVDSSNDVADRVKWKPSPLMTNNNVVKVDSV
T4 sequence (P35462 whole entry): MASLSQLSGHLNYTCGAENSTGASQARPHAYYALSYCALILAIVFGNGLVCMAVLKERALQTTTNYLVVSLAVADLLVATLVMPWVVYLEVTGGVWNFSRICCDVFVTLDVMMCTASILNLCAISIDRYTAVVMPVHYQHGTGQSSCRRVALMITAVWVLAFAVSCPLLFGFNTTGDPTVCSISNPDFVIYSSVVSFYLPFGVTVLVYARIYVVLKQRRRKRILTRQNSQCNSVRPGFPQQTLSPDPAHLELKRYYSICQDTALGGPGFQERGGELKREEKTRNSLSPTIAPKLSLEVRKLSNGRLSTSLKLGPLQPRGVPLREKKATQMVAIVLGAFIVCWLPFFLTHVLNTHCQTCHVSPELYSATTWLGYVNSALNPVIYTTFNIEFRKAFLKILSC
T9 sequence (P41595 whole entry): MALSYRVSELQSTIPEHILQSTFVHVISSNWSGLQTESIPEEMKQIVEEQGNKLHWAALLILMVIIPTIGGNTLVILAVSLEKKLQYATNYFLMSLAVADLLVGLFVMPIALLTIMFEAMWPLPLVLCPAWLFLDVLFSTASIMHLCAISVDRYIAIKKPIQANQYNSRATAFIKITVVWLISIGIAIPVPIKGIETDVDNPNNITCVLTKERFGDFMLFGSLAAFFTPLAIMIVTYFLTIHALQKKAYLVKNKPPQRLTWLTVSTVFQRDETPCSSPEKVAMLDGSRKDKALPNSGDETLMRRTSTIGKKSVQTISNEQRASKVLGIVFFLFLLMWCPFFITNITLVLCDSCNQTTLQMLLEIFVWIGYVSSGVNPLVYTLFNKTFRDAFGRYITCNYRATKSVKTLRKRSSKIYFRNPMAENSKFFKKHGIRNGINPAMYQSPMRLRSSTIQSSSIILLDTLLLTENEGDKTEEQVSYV
T2 sequence (P31645 whole entry): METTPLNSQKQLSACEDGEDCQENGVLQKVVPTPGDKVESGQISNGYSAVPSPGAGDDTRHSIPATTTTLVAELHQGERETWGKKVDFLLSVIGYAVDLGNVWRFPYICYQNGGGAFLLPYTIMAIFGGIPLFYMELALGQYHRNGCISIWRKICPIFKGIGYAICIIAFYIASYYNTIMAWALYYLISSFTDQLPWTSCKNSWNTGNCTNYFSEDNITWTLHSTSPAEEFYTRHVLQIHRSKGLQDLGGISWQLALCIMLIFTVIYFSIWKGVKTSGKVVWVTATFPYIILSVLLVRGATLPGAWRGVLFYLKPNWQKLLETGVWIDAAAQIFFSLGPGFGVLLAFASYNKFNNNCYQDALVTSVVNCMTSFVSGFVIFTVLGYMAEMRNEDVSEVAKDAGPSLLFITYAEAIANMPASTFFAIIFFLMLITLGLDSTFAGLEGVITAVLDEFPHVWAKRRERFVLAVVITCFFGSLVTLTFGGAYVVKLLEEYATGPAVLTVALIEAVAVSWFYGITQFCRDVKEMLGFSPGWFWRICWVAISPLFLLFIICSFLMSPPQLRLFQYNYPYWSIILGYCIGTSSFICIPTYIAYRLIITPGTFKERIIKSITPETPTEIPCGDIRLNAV
T7 sequence (P34969 whole entry): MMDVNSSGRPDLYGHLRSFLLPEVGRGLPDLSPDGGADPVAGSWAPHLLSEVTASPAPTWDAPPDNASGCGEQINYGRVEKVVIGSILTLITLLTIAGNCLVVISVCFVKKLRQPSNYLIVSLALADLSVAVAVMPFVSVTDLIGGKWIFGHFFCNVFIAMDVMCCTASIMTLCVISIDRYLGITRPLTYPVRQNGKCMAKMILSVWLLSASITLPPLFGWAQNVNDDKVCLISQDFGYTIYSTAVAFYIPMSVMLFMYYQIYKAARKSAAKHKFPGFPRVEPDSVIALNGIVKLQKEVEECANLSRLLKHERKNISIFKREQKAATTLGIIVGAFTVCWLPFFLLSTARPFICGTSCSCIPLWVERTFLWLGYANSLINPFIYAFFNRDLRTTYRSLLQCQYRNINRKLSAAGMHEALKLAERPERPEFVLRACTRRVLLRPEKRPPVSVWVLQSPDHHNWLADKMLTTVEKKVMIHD
T1 sequence (P28223 whole entry): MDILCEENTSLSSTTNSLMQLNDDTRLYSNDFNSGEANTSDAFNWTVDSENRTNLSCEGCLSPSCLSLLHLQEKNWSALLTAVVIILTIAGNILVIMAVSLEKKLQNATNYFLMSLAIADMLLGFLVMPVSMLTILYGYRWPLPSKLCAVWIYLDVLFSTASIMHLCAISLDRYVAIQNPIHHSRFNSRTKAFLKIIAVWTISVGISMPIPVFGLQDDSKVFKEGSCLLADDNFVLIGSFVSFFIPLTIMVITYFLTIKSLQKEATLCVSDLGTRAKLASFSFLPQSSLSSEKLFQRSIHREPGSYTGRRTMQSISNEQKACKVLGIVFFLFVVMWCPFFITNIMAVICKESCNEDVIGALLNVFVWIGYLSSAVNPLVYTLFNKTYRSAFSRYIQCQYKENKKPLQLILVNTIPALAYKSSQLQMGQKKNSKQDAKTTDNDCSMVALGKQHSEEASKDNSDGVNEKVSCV
T5 sequence (Q01959 whole entry): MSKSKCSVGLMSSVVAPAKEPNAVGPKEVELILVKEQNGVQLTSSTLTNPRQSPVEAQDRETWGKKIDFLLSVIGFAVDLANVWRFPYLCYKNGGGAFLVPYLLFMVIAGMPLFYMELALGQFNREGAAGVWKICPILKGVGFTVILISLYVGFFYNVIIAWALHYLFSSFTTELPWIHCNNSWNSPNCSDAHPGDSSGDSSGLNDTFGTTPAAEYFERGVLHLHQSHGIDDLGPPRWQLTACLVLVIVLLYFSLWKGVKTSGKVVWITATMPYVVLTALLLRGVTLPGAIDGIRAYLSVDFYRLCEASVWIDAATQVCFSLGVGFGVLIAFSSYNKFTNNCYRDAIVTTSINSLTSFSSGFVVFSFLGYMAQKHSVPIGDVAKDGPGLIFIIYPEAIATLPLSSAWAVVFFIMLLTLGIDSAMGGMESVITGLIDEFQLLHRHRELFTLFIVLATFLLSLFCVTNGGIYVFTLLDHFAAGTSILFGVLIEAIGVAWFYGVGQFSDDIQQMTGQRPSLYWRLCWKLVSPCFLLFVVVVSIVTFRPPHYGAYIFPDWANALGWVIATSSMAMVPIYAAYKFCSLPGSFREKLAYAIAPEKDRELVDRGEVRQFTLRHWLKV
T10 sequence (P23975 whole entry): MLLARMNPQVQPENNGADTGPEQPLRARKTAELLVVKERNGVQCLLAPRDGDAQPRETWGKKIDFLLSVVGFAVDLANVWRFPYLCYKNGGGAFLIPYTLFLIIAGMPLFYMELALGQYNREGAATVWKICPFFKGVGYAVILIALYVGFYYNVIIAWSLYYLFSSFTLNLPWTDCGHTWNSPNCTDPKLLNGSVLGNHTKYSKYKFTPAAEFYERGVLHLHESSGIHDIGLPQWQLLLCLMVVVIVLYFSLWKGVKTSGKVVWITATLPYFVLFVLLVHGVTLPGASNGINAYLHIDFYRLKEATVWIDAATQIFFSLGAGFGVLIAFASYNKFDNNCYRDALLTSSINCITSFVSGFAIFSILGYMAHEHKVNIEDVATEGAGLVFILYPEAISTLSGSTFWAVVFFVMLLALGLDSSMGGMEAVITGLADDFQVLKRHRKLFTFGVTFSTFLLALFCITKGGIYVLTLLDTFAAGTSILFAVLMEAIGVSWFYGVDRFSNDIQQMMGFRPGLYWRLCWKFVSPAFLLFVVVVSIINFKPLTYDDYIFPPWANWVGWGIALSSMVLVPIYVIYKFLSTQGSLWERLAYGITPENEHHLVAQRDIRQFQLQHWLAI

| SMILES | inhibition at 10 µM (5-HT2A receptor [1]) | Ki (5-HT2A receptor [2]; [9]) | inhibition at 10 µM [3] | Ki (5-HT1A receptor [4]) | inhibition at 10 µM (D3 receptor) | EC50 (5-HT1A receptor [5]) | inhibition at 10 µM (5-HT1A receptor [6]) | inhibition at 10 µM [7] | α-2A, percent of control-specific binding (alpha2A receptor) | inhibition at 10 µM (5-HT7 receptor) | inhibition at 10 µM (MT1 receptor) | inhibition at 10 µM (5-HT2B receptor) | inhibition at 10 µM [8] | inhibition at 10 µM (5-HT2C receptor) | further results |
| --- | --- | --- | --- | --- | --- | --- | --- | --- | --- | --- | --- | --- | --- | --- | --- |
| C/C(=C\c1ccc2c(c1)OCO2)CN1CCCC1 [B(II)] | 53% | 7 µM | 95% | 824 µM | 55% | 40.1 µM | 79% | 69% | 75% | 68% | 20% | 87% | 43% | 45% |  |
| CNC(C)Cc1ccc2c(c1)OCO2 (stereo not drawn) [MDMA, reference compound] |  |  |  | 11 µM |  |  |  |  | 27% |  |  |  |  |  | HT2A, percent of control-specific binding (5-HT2A receptor [1]; 10 µM): 74%; Ki (5-HT2A receptor [2]): 39.9 µM; SERT, percent of control-specific binding ([3]; 10 µM): 46%; D3, percent of control-specific binding (D3 receptor): 18%; EC50 (5-HT1A receptor [5]; reduction of cAMP in cells stimulated with 4 μM forskolin, CHO-K1/5-HT1A/Gα15, read-out: 5-HT1A, EC50): > 1000 µM; HT1A, percent of control-specific binding (5-HT1A receptor [6]): 68%; DAT, percent of control-specific binding ([7]; 10 μM test ligand, [3H]BTCP, recombinant transporter in CHO cells): 28%; HT7, percent of control-specific binding (5-HT7 receptor): 58%; MT1, percent of control-specific binding (MT1 receptor; 10 μM test ligand, [125I]2-iodomelatonin, recombinant receptor in CHO cells): 1%; HT2B, percent of control-specific binding (5-HT2B receptor): 85%; NET, percent of control-specific binding ([8]; 10 μM test ligand, [3H]nisoxetine, recombinant transporter in CHO cells): 3%; HT2C, percent of control-specific binding (5-HT2C receptor): 96% |
| CCN(CC)C/C=C/c1ccc2c(c1)OCO2 [D(I)] | 32% | 21 µM | 70% |  | 21% | > 1000 µM | 49% | 39% | 34% | 18% | 10% | 58% | 17% | 33% |  |
| O=C(CCc1ccc2c(c1)OCO2)N1CCCC1 [F(III)] | 0% | 152 µM | 0% | > 1000 µM | 0% |  | 0% | 0% | 5% | 2% | 12% | 13% | 0% | 5% |  |
